Key:
rat TAAR1 = biological target: T1, rat TAAR1 (Rattus norvegicus, UniProt Q923Y9); experiment: Radioligand binding at rat TAAR1 ([3H]RO5166017)
T1 construct: expressed in transfected cells; host or cells: HEK 293 cells (membrane preparations)

human 5-HT2A receptor = human 5-HT2A receptor (Homo sapiens, UniProt P28223); conditions: for Emax: NIH3T3, read-out: h5-HT2A Activation efficacy max ± SD, relative to 5-HT = 100%
h5-HT2C receptor = biological target: T2, h5-HT2C receptor (Homo sapiens, UniProt P28335); experiment: biochemical; format: binding; conditions: for Ki: [3H]mesulergine, mean ± SD, read-out: h5-HT2C Receptor binding Ki ± SD
T2 construct: expressed in transfected cells; host or cells: HEK 293 cells (membrane preparations)
T2 sequence (P28335 33-458): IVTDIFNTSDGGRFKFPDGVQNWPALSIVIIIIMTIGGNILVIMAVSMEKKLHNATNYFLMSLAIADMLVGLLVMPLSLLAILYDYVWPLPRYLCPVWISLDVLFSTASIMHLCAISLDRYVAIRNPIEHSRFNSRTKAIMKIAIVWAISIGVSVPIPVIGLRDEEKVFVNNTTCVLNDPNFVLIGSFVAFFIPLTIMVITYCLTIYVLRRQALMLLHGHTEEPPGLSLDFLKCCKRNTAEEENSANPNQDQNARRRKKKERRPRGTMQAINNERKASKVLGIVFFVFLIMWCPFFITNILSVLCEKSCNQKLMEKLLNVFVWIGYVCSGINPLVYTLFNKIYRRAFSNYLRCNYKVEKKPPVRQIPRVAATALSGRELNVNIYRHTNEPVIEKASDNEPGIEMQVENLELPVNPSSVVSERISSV

human 5-HT2B receptor = human 5-HT2B receptor (Homo sapiens, UniProt P41595); conditions: for Emax: HEK293, read-out: h5-HT2B Activation efficacy max ± SD, relative to 5-HT = 100%; for EC50: h5-HT2B Activation potency EC50 ± SD, HEK 293 cells, calcium FLIPR, mean ± SD
Chain of human 5-HT2B receptor (P41595 whole entry): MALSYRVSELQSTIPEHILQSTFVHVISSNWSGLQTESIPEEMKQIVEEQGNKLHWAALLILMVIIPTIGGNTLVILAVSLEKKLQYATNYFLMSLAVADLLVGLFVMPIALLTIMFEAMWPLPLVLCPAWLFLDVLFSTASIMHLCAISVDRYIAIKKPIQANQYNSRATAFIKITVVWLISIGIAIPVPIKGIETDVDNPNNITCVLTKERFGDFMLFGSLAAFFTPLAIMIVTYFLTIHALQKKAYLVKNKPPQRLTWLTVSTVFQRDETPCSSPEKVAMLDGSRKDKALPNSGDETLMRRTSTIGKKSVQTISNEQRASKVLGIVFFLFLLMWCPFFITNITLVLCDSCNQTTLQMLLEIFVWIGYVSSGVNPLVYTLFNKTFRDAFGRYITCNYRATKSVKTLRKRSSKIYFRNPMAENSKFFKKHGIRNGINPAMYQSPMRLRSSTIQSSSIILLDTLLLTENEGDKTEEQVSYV

hDAT = biological target: T3, hDAT (Homo sapiens, UniProt Q01959); experiment: Radioligand binding at hDAT ([3H]WIN35,428)
T3 construct: expressed in transfected cells; host or cells: HEK 293 cells (membrane preparations)
T3 sequence (Q01959 whole entry): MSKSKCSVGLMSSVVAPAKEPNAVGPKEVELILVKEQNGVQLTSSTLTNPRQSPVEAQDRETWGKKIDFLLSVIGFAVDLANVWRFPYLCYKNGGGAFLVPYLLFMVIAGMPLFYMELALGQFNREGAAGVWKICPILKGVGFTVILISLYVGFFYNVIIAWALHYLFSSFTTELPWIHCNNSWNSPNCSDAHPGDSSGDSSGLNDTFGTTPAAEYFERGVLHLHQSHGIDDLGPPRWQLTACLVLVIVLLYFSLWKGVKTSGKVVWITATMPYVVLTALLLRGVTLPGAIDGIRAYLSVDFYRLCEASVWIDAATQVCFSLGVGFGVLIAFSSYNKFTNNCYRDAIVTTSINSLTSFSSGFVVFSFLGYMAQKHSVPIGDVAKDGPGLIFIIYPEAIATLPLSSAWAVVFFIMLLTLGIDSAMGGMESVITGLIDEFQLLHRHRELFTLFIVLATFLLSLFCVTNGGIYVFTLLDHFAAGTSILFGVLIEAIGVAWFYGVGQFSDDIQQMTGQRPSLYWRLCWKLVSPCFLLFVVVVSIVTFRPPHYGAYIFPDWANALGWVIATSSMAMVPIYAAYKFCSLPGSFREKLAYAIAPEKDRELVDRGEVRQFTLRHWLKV

hNET = biological target: T4, hNET (Homo sapiens, UniProt P23975); experiment: Radioligand binding at hNET (N-methyl-[3H]nisoxetine)
T4 construct: expressed in transfected cells; host or cells: HEK 293 cells (membrane preparations)
T4 sequence (P23975 whole entry): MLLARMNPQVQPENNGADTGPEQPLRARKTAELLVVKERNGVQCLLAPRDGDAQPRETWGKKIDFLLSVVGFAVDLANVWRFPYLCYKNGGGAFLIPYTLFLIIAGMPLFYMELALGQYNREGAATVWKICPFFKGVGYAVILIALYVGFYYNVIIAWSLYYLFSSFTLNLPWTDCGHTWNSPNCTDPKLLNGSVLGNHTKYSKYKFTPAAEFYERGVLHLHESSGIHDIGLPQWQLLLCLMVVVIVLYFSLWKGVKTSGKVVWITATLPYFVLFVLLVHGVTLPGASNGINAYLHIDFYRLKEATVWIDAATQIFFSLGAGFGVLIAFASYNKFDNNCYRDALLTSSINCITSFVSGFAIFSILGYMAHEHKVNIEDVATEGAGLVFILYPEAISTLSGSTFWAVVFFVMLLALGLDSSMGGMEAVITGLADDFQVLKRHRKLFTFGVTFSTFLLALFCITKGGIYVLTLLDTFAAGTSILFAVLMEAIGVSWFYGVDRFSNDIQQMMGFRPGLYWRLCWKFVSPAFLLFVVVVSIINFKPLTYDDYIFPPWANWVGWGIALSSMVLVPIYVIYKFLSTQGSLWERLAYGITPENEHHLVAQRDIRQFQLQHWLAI

head twitch response = test system: head twitch response; set-up: method as in Halberstadt et al. (2019); conditions: ref Halberstadt et al. (2019); cited from earlier work
humans = conditions: ref Trachsel 2012; cited from earlier work

Chain of human 5-HT2A receptor (P28223 whole entry): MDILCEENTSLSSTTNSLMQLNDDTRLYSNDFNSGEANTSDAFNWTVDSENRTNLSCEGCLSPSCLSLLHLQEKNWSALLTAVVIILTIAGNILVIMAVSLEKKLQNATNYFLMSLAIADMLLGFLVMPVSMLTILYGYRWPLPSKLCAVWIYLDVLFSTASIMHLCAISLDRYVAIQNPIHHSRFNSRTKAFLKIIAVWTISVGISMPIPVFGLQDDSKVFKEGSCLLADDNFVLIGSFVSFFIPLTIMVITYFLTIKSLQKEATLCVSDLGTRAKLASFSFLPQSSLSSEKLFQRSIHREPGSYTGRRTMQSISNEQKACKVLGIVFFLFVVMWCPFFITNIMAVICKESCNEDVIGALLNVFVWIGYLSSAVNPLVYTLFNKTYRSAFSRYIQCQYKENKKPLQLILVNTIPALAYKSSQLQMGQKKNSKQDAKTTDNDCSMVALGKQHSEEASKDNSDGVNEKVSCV
T1 sequence (Q923Y9 whole entry): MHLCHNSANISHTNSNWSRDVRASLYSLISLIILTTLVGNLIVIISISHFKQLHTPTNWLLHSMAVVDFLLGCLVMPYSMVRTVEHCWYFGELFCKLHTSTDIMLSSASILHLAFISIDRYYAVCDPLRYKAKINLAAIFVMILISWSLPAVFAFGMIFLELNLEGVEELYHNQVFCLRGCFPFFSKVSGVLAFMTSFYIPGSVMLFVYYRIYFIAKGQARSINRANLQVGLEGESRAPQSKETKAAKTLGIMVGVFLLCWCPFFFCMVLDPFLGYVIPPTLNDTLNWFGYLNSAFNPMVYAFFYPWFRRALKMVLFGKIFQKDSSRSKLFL

Row | SMILES | Ki (rat TAAR1) | EC50 (human 5-HT2A receptor) | Ki (h5-HT2C receptor) | Emax (human 5-HT2B receptor) | EC50 (human 5-HT2B receptor) | Ki (hDAT) | Ki (hNET) | Emax (human 5-HT2A receptor) | Head twitch response (head twitch response) | Higher affinity at the 5-HT2C receptor than mescaline (5) (h5-HT2C receptor) | Increase in human potency compared to mescaline (5) (humans)
1 | COc1cc(CC(C)N)cc(OC)c1OC(F)F (stereo not drawn) [compound 14, 4-difluoromethoxy-3,5-dimethoxyamphetamine] | 380 ± 20 nM | 76 ± 40 nM | 3700 nM | 18 to 29% | 150 ± 100 nM | > 8500 nM | > 9700 nM | – | – | – | –
2 | COc1cc(CCN)cc(OC)c1OCCC(F)(F)F [compound 26, 3,5-dimethoxy-4-(3,3,3-trifluoropropoxy)phenethylamine] | 910 ± 90 nM | 4900 nM | 5300 nM | – | > 10000 nM | > 8500 nM | > 9700 nM | – | – | – | –
3 | CCCOc1c(OC)cc(CC(C)N)cc1OC (stereo not drawn) [compound 28, 3,5-dimethoxy-4-propyloxyamphetamine] | 3400 nM | 160 ± 20 nM | 2000 nM | – | > 10000 nM | > 8500 nM | > 9700 nM | 86 to 102% | induced a head twitch response with almost identical potency | – | –
4 | COc1cc(CCN)cc(OC)c1OCC(F)(F)F [compound 18, 3,5-dimethoxy-4-(2,2,2-trifluoroethoxy)phenethylamine] | 1200 nM | 960 ± 50 nM | 1200 nM | 29 ± 14% | 210 ± 130 nM | > 8500 nM | > 9700 nM | 44 to 78% | – | – | –
5 | COc1cc(CCN)cc(OC)c1OCCCF [compound 25, 3,5-dimethoxy-4-(3-fluoropropoxy)-phenethylamine] | 1700 nM | 4500 nM | 5300 nM | – | > 10000 nM | > 8500 nM | > 9700 nM | 85 to 94% | – | – | –
6 | COc1cc(CCN)cc(OC)c1OC1CC1 [compound 29, 4-cyclopropyloxy-3,5-dimethoxyphenethylamine] | 1200 nM | 2600 nM | 5600 nM | – | > 10000 nM | > 8500 nM | > 9700 nM | 85 to 94% | – | – | –
7 | COc1cc(CCN)cc(OC)c1OCc1ccccc1 [compound 33, 4-benzyloxy-3,5-dimethoxyphenethylamine] | 110 ± 10 nM | 27 ± 8 nM | 440 ± 120 nM | – | > 10000 nM | > 8500 nM | > 9700 nM | – | – | 19- to 34 fold | –
8 | COc1cc(CCN)cc(OC)c1OC(CF)CF [compound 23, 3,5-dimethoxy-4-(1,3-difluoroprop-2-yloxy)phenethylamine] | > 4700 nM | – | > 10000 nM | – | > 10000 nM | > 8500 nM | > 9700 nM | – | – | – | –
9 | COc1cc(CCN)cc(OC)c1OC(F)(F)F [compound 13, 4-trifluoromethoxy-3,5-dimethoxyphenethylamine] | 170 ± 10 nM | 280 ± 120 nM | 290 ± 100 nM | 45 ± 6% | 88 ± 20 nM | > 8500 nM | > 9700 nM | – | – | 19- to 34 fold | > 9 fold
10 | C=C(C)COc1c(OC)cc(CCN)cc1OC [compound 32, 3,5-dimethoxy-4-methallyloxyphenethylamine] | 1000 nM | 79 ± 12 nM | 520 ± 150 nM | – | > 10000 nM | > 8500 nM | > 9700 nM | 85 to 94% | – | 19- to 34 fold | –
